40 compounds from patent US20250059174A1, “Pharmaceutical Compounds and Compositions as C-Kit Kinase Inhibitors” (Enanta Pharmaceuticals, Inc., priority 2023, published 2025) can be followed below.

One assay concerns M-07e cells. The assay is described as follows: M-07e cellular assay (SCF-mediated cell proliferation). The following applies: Homo sapiens, 72 hours, CellTiter Glo. The class given is cell-based. On the procedure:
M-07e cells (Creative Bioarray, CSC-C0249) which endogenously express human c-KIT were used to evaluate the effect of compounds on stem cell factor (SCF)-mediated cell proliferation. M-07e cells were cultured in growth media (RPMI+10% FBS+1% penicillin/streptomycin+10 ng/mL GM-CSF) at 5E5-1.5E6 cells/mL, replenishing media every 3-4 days. 1.5E4 cells were seeded per well in 384 well tissue culture treated plates in 20 μL assay media (RPMI+[…]+1% penicillin/streptomycin) without growth factor stimulation and incubated at 37° C. in a CO2 humidity-controlled incubator. Twenty-four hours later, three-fold serially diluted test compounds in media containing SCF (at the previously determined EC90) were added to the plated M-07e cells and incubated for an additional 72 hours. Cell viability was determined by adding 25 μL CellTiter Glo (Promega) to the cells and the luminescence was measured using a Perkin Elmer Envision plate reader. The EC50 was determined using GraphPad Prism. Percent cell growth was determined after normalizing the curve to the mean RLU high control (no compound control wells) at 100% and the mean RLU low control (no SCF control wells) at 0%.
(Cellular ATP, detected with luciferase, serves as a proxy for viable cell number.)

Assay [1] concerns the target Recombinant human c-KIT kinase (Homo sapiens (Human), UniProt P10721). The assay is described as follows: c-KIT kinase chemiluminescence assay (ADP-Glo). The class given is biochemical. To be noted: ATP 50 μM. As for the experimental part:
The c-KIT Kinase Enzyme System (V4498) and ADP-Glo™ Kinase Assay kit (V6930) were purchased from Promega (Madison, WI). DMSO (D2650) was purchased from Sigma-Aldrich (Burlington, MA).
Kinase Reaction: The kinase assay was based on the recommended protocol by c-KIT Kinase Enzyme System from Promega. Recombinant human c-KIT kinase in 3 μL of assay buffer (40 mM Tris pH 7.5, 20 mM MgCl2, 0.1 mg/mL BSA and 50 μM DTT) was added to the test or high control wells and 3 μL of assay buffer was added to the low control wells. The microplate was centrifuged at 800 rotations per minute (rpm) for 60 s and incubated at room temperature (RT) for 30 min. Next, 2 μL of buffered ATP and polyEY substrate solution was added to all wells. The microplate was centrifuged at 800 rpm for 60 s and incubated at RT for 2 h.
ADP detection with ADP-Glo™ Kinase Assay: After the kinase reaction incubation, 5 μL of ADP-Glo™ reagent was added to all wells. The microplate was centrifuged at 800 rpm for 60 s and incubated at RT for 40 min. Ten microliter (10 μL) of Kinase Detection Reagent (Luciferin-Luciferase system) was then added to all wells. The microplate was centrifuged at 800 rpm for 60 s and incubated at RT for 60 min. Kinase activity was measured as increase in luminescence at RT in an Envision plate reader equipped with 560 nm filters and operating in endpoint mode. Data Analysis: Endpoint chemiluminescence from high and low control wells were used to calculate normalized c-KIT activity at various concentrations of test compounds. The normalized activities were fitted to inhibitor-versus-normalized response fit in GraphPad Prism 7 to determine half-maximal inhibitory concentration (IC50) and hill coefficient values (H).
Where I is the inhibitor concentration and H is the Hill coefficient.
For orientation: ADP-Glo turns the ADP formed in a reaction into a luminescent signal.

Some results are limits rather than exact numbers.

Chain of Recombinant human c-KIT kinase (P10721 26-976): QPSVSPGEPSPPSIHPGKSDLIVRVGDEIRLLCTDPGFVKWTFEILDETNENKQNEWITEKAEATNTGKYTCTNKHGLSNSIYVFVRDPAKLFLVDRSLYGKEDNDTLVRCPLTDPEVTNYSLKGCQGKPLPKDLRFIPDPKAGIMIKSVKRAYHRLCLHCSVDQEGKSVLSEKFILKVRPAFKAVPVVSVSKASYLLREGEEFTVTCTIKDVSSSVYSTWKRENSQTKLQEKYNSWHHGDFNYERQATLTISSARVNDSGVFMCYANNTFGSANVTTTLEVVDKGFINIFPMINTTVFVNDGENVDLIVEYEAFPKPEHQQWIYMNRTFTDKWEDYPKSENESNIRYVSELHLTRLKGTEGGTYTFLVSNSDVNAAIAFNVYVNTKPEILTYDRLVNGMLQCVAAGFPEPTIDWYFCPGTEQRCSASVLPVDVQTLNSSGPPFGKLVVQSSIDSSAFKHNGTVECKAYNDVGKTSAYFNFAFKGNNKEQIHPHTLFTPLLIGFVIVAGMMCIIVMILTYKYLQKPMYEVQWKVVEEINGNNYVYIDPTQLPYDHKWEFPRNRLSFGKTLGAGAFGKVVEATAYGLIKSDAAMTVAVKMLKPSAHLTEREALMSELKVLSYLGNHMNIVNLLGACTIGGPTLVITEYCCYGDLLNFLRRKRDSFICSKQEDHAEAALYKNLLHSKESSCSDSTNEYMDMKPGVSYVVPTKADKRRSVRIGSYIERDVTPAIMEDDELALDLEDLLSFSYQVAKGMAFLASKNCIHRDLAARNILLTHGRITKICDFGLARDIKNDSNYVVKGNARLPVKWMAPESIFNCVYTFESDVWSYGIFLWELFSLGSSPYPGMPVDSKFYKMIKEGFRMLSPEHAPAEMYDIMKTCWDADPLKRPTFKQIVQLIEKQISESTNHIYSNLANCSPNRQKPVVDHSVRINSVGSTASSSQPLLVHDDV

For `Cc1ccc(-c2noc([C@H]3C[C@@H]3F)n2)cc1NC(=O)c1cnn2cc(F)ccc12` [Example 1a], the EC50 – broadly, the midpoint of the concentration-response curve – with M-07e cells lay within 0.1 to 1 µM. In addition, the IC50 (commonly the concentration at which inhibition is half-maximal) in assay [1] lay within 0.1 to 1 µM.
Take `Cc1ccc(-c2noc([C@H]3C[C@@H]3F)n2)cc1NC(=O)c1cncn1C` [Example 2]: the EC50 in the assay with M-07e cells was > 1 µM. For the same compound, in assay [1], the IC50 was > 1 µM.
In the case of `Cc1ccc(-c2noc(C3C[C@@H]3F)n2)cc1NC(=O)c1cnn2ccc(-c3cnn(C(F)F)c3)cc12` (stereo partly shown) [Example 2a], in the assay with M-07e cells, the EC50 is < 0.1 µM.
With `Cc1ccc(-c2noc([C@H]3C[C@@H]3F)n2)cc1NC(=O)c1cccnc1` [Example 3], the EC50 with M-07e cells is > 1 µM. The concentration for half-maximal inhibition (IC50) in assay [1] was > 1 µM.
Regarding `Cc1ccc(-c2noc([C@H]3C[C@@H]3F)n2)cc1NC(=O)c1cnc(C)n1C` [Example 4], the half-maximal effective concentration (EC50) in the assay on M-07e cells was > 1 µM. Besides, the IC50 in assay [1] was > 1 µM.
Turning to `Cc1ccc(-c2noc([C@H]3C[C@@H]3F)n2)cc1NC(=O)c1cccnn1` [Example 5], the 50% effective concentration (EC50) with M-07e cells was > 1 µM. The IC50 in assay [1] was > 1 µM.
As to `Cc1ccc(-c2noc([C@H]3C[C@@H]3F)n2)cc1NC(=O)c1cnn2ccccc12` [Example 6], the EC50 in the assay with M-07e cells was < 0.1 µM. The 50% inhibitory concentration (IC50) in assay [1] is < 0.1 µM.
Turning to `Cc1ccc(-c2noc([C@H]3C[C@@H]3F)n2)cc1NC(=O)c1cnn2cccnc12` [Example 7], the EC50 in the assay on M-07e cells is > 1 µM. Also, the half-inhibitory concentration (IC50) in assay [1] is > 1 µM.
Turning to `Cc1ccc(-c2noc([C@H]3C[C@@H]3F)n2)cc1NC(=O)c1cnc(-c2ccccc2)n1C` [Example 14], the EC50 in the assay with M-07e cells was > 1 µM. The IC50 in assay [1] lay in the range of 0.1 to 1 µM.
`Cc1ccc(-c2noc([C@H]3C[C@@H]3F)n2)cc1NC(=O)c1cnn2ccncc12` [Example 15]: in the assay with M-07e cells, the EC50 lay in the range of 0.1 to 1 µM. Further, the IC50 in assay [1] is 0.1 to 1 µM.
Regarding `Cc1ccc(-c2noc([C@H]3C[C@@H]3F)n2)cc1NC(=O)c1cnn(-c2ccccc2)c1` [Example 23], the EC50 with M-07e cells fell in the range of 0.1 to 1 µM. Also, in assay [1], the IC50 lay in the range of 0.1 to 1 µM.
For `Cc1ccc(-c2noc([C@H]3C[C@@H]3F)n2)cc1NC(=O)c1ccnc2ccccc12` [Example 27], the half-maximal effective concentration (EC50) in the assay on M-07e cells was > 1 µM. For the same compound, in assay [1], the IC50 is > 1 µM.
In turn, `Cc1ccc(-c2noc([C@H]3C[C@@H]3F)n2)cc1NC(=O)c1cnc2sccn12` [Example 30] had a 50% effective concentration (EC50) in the assay with M-07e cells of 0.1 to 1 µM. For the same compound, the IC50 in assay [1] was < 0.1 µM.
Turning to `Cc1ncc(C(=O)Nc2cc(-c3noc([C@H]4C[C@@H]4F)n3)ccc2C)s1` [Example 34], the concentration giving a half-maximal response (EC50) in the assay with M-07e cells was > 1 µM. Besides, in assay [1], the IC50 was > 1 µM.
For the compound `Cc1ccc(-c2noc([C@H]3C[C@@H]3F)n2)cc1NC(=O)c1cnn(C)c1` [Example 35], in the assay with M-07e cells, the EC50 is > 1 µM. Moreover, in assay [1], the 50% inhibitory concentration (IC50) is > 1 µM.
For `Cc1ccc(-c2noc([C@H]3C[C@@H]3F)n2)cc1NC(=O)c1cnn2c1CCC2` [Example 36], the EC50 with M-07e cells was > 1 µM. In addition, in assay [1], the 50% inhibitory concentration (IC50) is > 1 µM.
For the compound `Cc1ccc(-c2noc([C@H]3C[C@@H]3F)n2)cc1NC(=O)c1cnc2n1CCC2` [Example 37], the EC50 in the assay with M-07e cells was > 1 µM. Besides, the IC50 in assay [1] is > 1 µM.
Regarding `CC(=O)Nc1ncc(C(=O)Nc2cc(-c3noc([C@H]4C[C@@H]4F)n3)ccc2C)s1` [Example 38], in the assay on M-07e cells, the concentration giving a half-maximal response (EC50) was 0.1 to 1 µM. Moreover, the IC50 in assay [1] fell in the range of 0.1 to 1 µM.
As for `Cc1ccc(-c2noc([C@H]3C[C@@H]3F)n2)cc1NC(=O)c1coc2ccccc12` [Example 39], the EC50 in the assay with M-07e cells was > 1 µM. The IC50 in assay [1] is > 1 µM.
For `Cc1ccc(-c2noc([C@H]3C[C@@H]3F)n2)cc1NC(=O)c1n[nH]c2ncccc12` [Example 40], in the assay on M-07e cells, the EC50 is > 1 µM. Moreover, the IC50 in assay [1] was > 1 µM.
Turning to `Cc1ccc(-c2noc([C@H]3C[C@@H]3F)n2)cc1NC(=O)c1cnn2cc(Br)ccc12` [Example 41, 6-bromo-N-(5-(5-((1R,2S)-2-fluorocyclopropyl)-1,2,4-oxadiazol-3-yl)-2-methylphenyl)pyrazolo [1,5-a]pyridine-3-carboxamide], the EC50 in the assay on M-07e cells was 0.1 to 1 µM. Moreover, the 50% inhibitory concentration (IC50) in assay [1] is < 0.1 µM.
In the assay on M-07e cells, `Cc1ccc(-c2noc([C@H]3C[C@@H]3F)n2)cc1NC(=O)c1cnn2ccc(Br)cc12` [Example 42, 5-bromo-N-(5-(5-((1R,2S)-2-fluorocyclopropyl)-1,2,4-oxadiazol-3-yl)-2-methylphenyl)pyrazolo[1,5-a]pyridine-3-carboxamide] had an EC50 of 0.1 to 1 µM. The IC50 in assay [1] is < 0.1 µM.
With `Cc1ccc(-c2noc([C@H]3C[C@@H]3F)n2)cc1NC(=O)c1cnn2ccc(N3CC4(COC4)C3)cc12` [Example 43], the EC50 in the assay on M-07e cells is < 0.1 µM. Besides, the IC50 in assay [1] is < 0.1 µM.
In the case of `Cc1ccc(-c2noc([C@H]3C[C@@H]3F)n2)cc1NC(=O)c1cnn2ccc(N3CCS(=O)(=O)CC3)cc12` [Example 44], the 50% effective concentration (EC50) with M-07e cells is < 0.1 µM. The IC50 in assay [1] is < 0.1 µM.
The compound `COc1ccc(-n2cc(C(=O)Nc3cc(-c4noc([C@H]5C[C@@H]5F)n4)ccc3C)cn2)cc1` [Example 52] registered a half-maximal effective concentration (EC50) in the assay on M-07e cells of 0.1 to 1 µM. Also, the IC50 in assay [1] fell in the range of 0.1 to 1 µM.
Turning to `Cc1ccc(-c2noc([C@H]3C[C@@H]3F)n2)cc1NC(=O)c1cnc2n1Cc1ccccc1-2` [Example 99], the concentration giving a half-maximal response (EC50) in the assay on M-07e cells was < 0.1 µM.
Take `Cc1ncc(-c2ccn3ncc(C(=O)Nc4cc(-c5noc([C@H]6C[C@@H]6F)n5)ccc4C)c3c2)c(C)n1` [Example 168]: the EC50 with M-07e cells is < 0.1 µM.
For the compound `Cc1ccc(-c2noc(C3C[C@@H]3F)n2)cc1NC(=O)c1cnn2ccc(N3C[C@H](CS(C)(=O)=O)[C@@H]3C)cc12` (stereo partly shown) [Example 172], the concentration for a half-maximal effect (EC50) with M-07e cells is < 0.1 µM.
`Cc1ccc(-c2noc([C@H]3C[C@@H]3F)n2)cc1NC(=O)c1cnc(-c2cnc(N)nc2)o1` [Example 308-64]: in the assay with M-07e cells, the 50% effective concentration (EC50) is > 1 µM.
In the case of `Cc1ccc(-c2noc([C@H]3C[C@@H]3F)n2)cc1NC(=O)c1cnc(-c2ccc3c(cnn3CC(C)(C)O)c2)o1` [Example 308-65], in assay [1], the IC50 was < 0.1 µM.
Turning to `Cc1ccc(-c2noc([C@H]3C[C@@H]3F)n2)cc1NC(=O)c1cnc(-c2ccc3nn(CC(C)(C)O)cc3c2)o1` [Example 308-66], in assay [1], the IC50 is < 0.1 µM.
For the compound `Cc1ccc(-c2nc([C@H]3C[C@@H]3F)cs2)cc1NC(=O)c1cnn2ccc(N3CC4(COC4)C3)cc12` [Example 309], in the assay on M-07e cells, the half-maximal effective concentration (EC50) is < 0.1 µM.
On to `Cc1ncc(-c2nnn(C3CN(C(=O)C4CC4)C3)n2)cc1NC(=O)c1cnn2ccc(N3CC4(C3)CC(O)(C(F)F)C4)cc12` [Example 312-10], for which the IC50 in assay [1] fell in the range of 0.1 to 1 µM.
Take `Cc1ncc(-c2ncc(OC(F)(F)F)cn2)cc1NC(=O)c1cnn2ccc(-c3c(C)nc(N)nc3C)cc12` [Example 364]: the EC50 with M-07e cells is < 0.1 µM.
With `Cc1nc(N)nc(C)c1-c1ccn2ncc(C(=O)Nc3cc(-c4noc([C@H]5C[C@@H](OC(F)(F)F)C5)n4)sc3C)c2c1` [Example 368], the EC50 with M-07e cells was in the range of 0.1 to 1 µM.
For `Cc1nc(N)nc(C)c1-c1ccn2ncc(C(=O)Nc3cc(-c4noc(C5CN(C(=O)OC(C)(C)C)C5)n4)sc3C)c2c1` [Example 369], the EC50 in the assay on M-07e cells is > 1 µM.
On the same count and under the same terms, the result for `Cc1nc(N)nc(C)c1-c1ccn2ncc(C(=O)Nc3cc(-c4noc([C@H]5C[C@@H]5F)n4)sc3C)c2c1` [Example 370] reads > 1 µM; that for `Cc1nc(N)nc(C)c1-c1ccn2ncc(C(=O)Nc3cc(-c4noc(C5CN(C(=O)[C@H]6C[C@@H]6F)C5)n4)sc3C)c2c1` [Example 371], > 1 µM; that for `Cc1nn(-c2ccc(C3CC3)cc2)cc1NC(=O)c1cnn2ccc(N3CC4(COC4)C3)cc12` [Example 372], > 1 µM.
On to `O=C(Nc1cn(-c2ccc(C3CC3)cc2)nc1C(F)F)c1cnn2ccc(N3CC4(COC4)C3)cc12` [compound 373], for which the half-maximal inhibitory concentration (IC50) in assay [1] was > 1 µM.
